Data: patent US20260083851A1 (AVILAR THERAPEUTICS, INC., priority 2022, published 2026)

biological target: T1, ASGP receptor (biotinylated ASGPR) (Homo sapiens, UniProt P07306); assay type: binding; conditions: SPR, Biacore 8K, 25° C.; Table 1A, numeric bound; read-out: ASGPR KD
T1 construct: biotin (biotinylated)
T1 sequence (P07306 1-291): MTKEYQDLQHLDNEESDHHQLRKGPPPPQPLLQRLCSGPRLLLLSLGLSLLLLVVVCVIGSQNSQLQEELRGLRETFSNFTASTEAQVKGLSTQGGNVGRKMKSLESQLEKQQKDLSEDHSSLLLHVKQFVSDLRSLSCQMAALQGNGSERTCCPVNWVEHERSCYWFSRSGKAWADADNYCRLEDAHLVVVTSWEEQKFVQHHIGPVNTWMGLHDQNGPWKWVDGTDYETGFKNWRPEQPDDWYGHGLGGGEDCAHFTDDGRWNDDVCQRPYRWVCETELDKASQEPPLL

Kd | SMILES
> 20 µM | O=C(O)CNC(COCCC(=O)NC[C@H]1OC[C@H](Nc2cncc(C(F)(F)F)n2)[C@@H](O)[C@H]1O)COCCC(=O)NC[C@H]1OC[C@H](Nc2cncc(C(F)(F)F)n2)[C@@H](O)[C@H]1O [A23, (1,15-bis((2R,3R,4R,5S)-3,4-dihydroxy-5-((6-(trifluoromethyl)pyrazin-2-yl)amino)tetrahydro-2H-pyran-2-yl)-3,13-dioxo-6,10-dioxa-2,14-diazapentadecan-8-yl)glycine]

same assay, conditions: SPR, Biacore 8K, 25° C.; Table 1A; read-out: ASGPR KD

SMILES | Kd
O=C(O)c1ccc(N2CCC(CN3CCN(C[C@H]4OC[C@H](Nc5ccnc(C(F)(F)F)n5)[C@@H](O)[C@H]4O)CC3)CC2)cc1 [A97, 4-(4-((4-(((2R,3R,4R,5S)-3,4-dihydroxy-5-((2-(trifluoromethyl)pyrimidin-4-yl)amino)tetrahydro-2H-pyran-2-yl)methyl)piperazin-1-yl)methyl)piperidin-1-yl)benzoic acid] | < 10 µM
CC(NC[C@H]1OC[C@H](Nc2cncc(C(F)(F)F)n2)[C@@H](O)[C@H]1O)c1ncccn1 (stereo partly drawn) [A55, (2R,3R,4R,5S)-2-(((1-(pyrimidin-2-yl)ethyl)amino)methyl)-5-((6-(trifluoromethyl)pyrazin-2-yl)amino)tetrahydro-2H-pyran-3,4-diol] | < 10 µM
NCCCCCC(=O)NC(COCCC(=O)NCCOCCOCCOCCOC[C@H]1OC[C@H](Nc2nccc(C(F)(F)F)n2)[C@@H](O)[C@H]1O)COCCC(=O)NCCOCCOCCOCCOC[C@H]1OC[C@H](Nc2nccc(C(F)(F)F)n2)[C@@H](O)[C@H]1O [A45, 3,3′-((2-(6-aminohexanamido)propane-1,3-diyl)bis(oxy))bis(N-(1-((2R,3R,4R,5S)-3,4-dihydroxy-5-((4-(trifluoromethyl)pyrimidin-2-yl)amino)tetrahydro-2H-pyran-2-yl)-2,5,8,11-tetraoxatridecan-13-yl)propanamide)] | < 10 µM
O=C(O)c1ccc(N2CCC(CN3CCN(C[C@H]4OC[C@H](Nc5cncc(C(F)(F)F)n5)[C@@H](O)[C@H]4O)CC3)CC2)nn1 [A16, 6-(4-((4-(((2R,3R,4R,5S)-3,4-dihydroxy-5-((6-(trifluoromethyl)pyrazin-2-yl)amino)tetrahydro-2H-pyran-2-yl)methyl)piperazin-1-yl)methyl)piperidin-1-yl)pyridazine-3-carboxylic acid] | < 10 µM
O=C(O)c1ccc(N2CCC(CN3CCN(C[C@H]4OC[C@H](Nc5nc(C(F)(F)F)ccc5F)[C@@H](O)[C@H]4O)CC3)CC2)cc1 [A101, 4-(4-((4-(((2R,3R,4R,5S)-5-((3-fluoro-6-(trifluoromethyl)pyridin-2-yl)amino)-3,4-dihydroxytetrahydro-2H-pyran-2-yl)methyl)piperazin-1-yl)methyl)piperidin-1-yl)benzoic acid] | < 10 µM

Second part, the compound after the results:

Kd | SMILES
< 10 µM | OC[C@H]1NC[C@H](Nc2cncc(C(F)(F)F)n2)[C@@H](O)[C@H]1O [A118]
< 10 µM | O=C(NC[C@H]1OC[C@H](Nc2cncc(C(F)(F)F)n2)[C@@H](O)[C@H]1O)c1ccc2occc2c1 [A11, N-(((2R,3R,4R,5S)-3,4-dihydroxy-5-((6-(trifluoromethyl)pyrazin-2-yl)amino)tetrahydro-2H-pyran-2-yl)methyl)benzofuran-5-carboxamide]
< 10 µM | O=C(NC[C@H]1OC[C@H](Nc2cncc(C(F)(F)F)n2)[C@@H](O)[C@H]1O)c1nc2ccccc2[nH]1 [A13, N-(((2R,3R,4R,5S)-3,4-dihydroxy-5-((6-(trifluoromethyl)pyrazin-2-yl)amino)tetrahydro-2H-pyran-2-yl)methyl)-1H-benzo[d]imidazole-2-carboxamide]
< 10 µM | O=C(NC[C@H]1OC[C@H](Nc2cncc(C(F)(F)F)n2)[C@@H](O)[C@H]1O)c1cnc2cc[nH]c2n1 [A82, N-(((2R,3R,4R,5S)-3,4-dihydroxy-5-((6-(trifluoromethyl)pyrazin-2-yl)amino)tetrahydro-2H-pyran-2-yl)methyl)-5H-pyrrolo[2,3-b]pyrazine-3-carboxamide]
< 10 µM | O=C(O)c1ccc(-c2ccc(C(=O)NC[C@H]3OC[C@H](Nc4cncc(C(F)(F)F)n4)[C@@H](O)[C@H]3O)cc2)cc1 [A38, 4′-((((2R,3R,4R,5S)-3,4-dihydroxy-5-((6-(trifluoromethyl)pyrazin-2-yl)amino)tetrahydro-2H-pyran-2-yl)methyl)carbamoyl)-[1,1′-biphenyl]-4-carboxylic acid]
< 10 µM | O=C(NC[C@H]1OC[C@H](Nc2cncc(C(F)(F)F)n2)[C@@H](O)[C@H]1O)c1cnc2ccccc2c1 [A8, N-(((2R,3R,4R,5S)-3,4-dihydroxy-5-((6-(trifluoromethyl)pyrazin-2-yl)amino)tetrahydro-2H-pyran-2-yl)methyl)quinoline-3-carboxamide]

same assay, conditions: SPR, Biacore 8K, 25° C.; Table 1B; read-out: ASGPR Kd

Kd | SMILES
< 10 µM | OC[C@H]1OC[C@H](Sc2cccc(C(F)(F)F)n2)[C@@H](O)[C@H]1O [A161, (2R,3R,4S,5S)-2-(hydroxymethyl)-5-((6-(trifluoromethyl)pyridin-2-yl)thio)tetrahydro-2H-pyran-3,4-diol]
< 10 µM | O[C@@H]1[C@H](O)[C@@H](Nc2cccc(OC(F)(F)F)n2)CO[C@@H]1COc1cccc(OC(F)(F)F)n1 [A144, (2R,3R,4R,5S)-5-((6-(trifluoromethoxy)pyridin-2-yl)amino)-2-(((6-(trifluoromethoxy)pyridin-2-yl)oxy)methyl) tetrahydro-2H-pyran-3,4-diol]

same assay, conditions: SPR, Biacore 8K, 25° C.; Table 1C; read-out: ASGPR KD

Kd | SMILES
< 10 µM | COC(=O)c1ccc(C#C[C@H]2O[C@H](C)[C@H](O)[C@H](O)[C@H]2Oc2cccc(C(F)(F)F)n2)nn1 [A321]
< 10 µM | O=C(O)c1ccc(OC[C@H]2OC[C@H](Nc3cccc(C(F)(F)F)n3)[C@@H](O)[C@H]2O)nn1 [A317]
< 10 µM | OC[C@H]1O[C@H](c2ccc(N3CCNCC3)cc2)[C@H](Oc2cccc(C(F)(F)F)n2)[C@@H](O)[C@H]1O [A250]
< 10 µM | O[C@@H]1[C@H](O)[C@@H](Nc2cccc(C(F)(F)F)n2)CO[C@@H]1CN1CCC1 [A279]
< 10 µM | CC(C)(C)OC(=O)N1CCC(n2cc([C@H]3OC[C@H](Nc4cncc(C(F)(F)F)n4)[C@@H](O)[C@H]3O)nn2)CC1 [A193, tert-butyl 4-(4-((2R,3R,4R,5S)-3,4-dihydroxy-5-((6-(trifluoromethyl)pyrazin-2-yl)amino)tetrahydro-2H-pyran-2-yl)-1H-1,2,3-triazol-1-yl)piperidine-1-carboxylate]
< 10 µM | Cc1cncc(N[C@H]2CO[C@H](CO)[C@H](O)[C@@H]2O)n1 [A180, (2R,3R,4R,5S)-2-(hydroxymethyl)-5-((6-methylpyrazin-2-yl)amino)tetrahydro-2H-pyran-3,4-diol]
< 10 µM | O=C1CCCN1C[C@H]1OC[C@H](Nc2cccc(C(F)(F)F)n2)[C@@H](O)[C@H]1O [A285]
< 10 µM | O[C@@H]1[C@H](O)[C@@H](Oc2cccc(C(F)(F)F)n2)CO[C@@H]1COc1cccnn1 [A216, (2R,3R,4S,5S)-2-((pyridazin-3-yloxy)methyl)-5-((6-(trifluoromethyl)pyridin-2-yl)oxy)tetrahydro-2H-pyran-3,4-diol]
< 10 µM | O[C@@H]1[C@H](O)[C@@H](Oc2cccc(C(F)(F)F)n2)CO[C@@H]1COc1ncccn1 [A235, (2R,3R,4S,5S)-2-((pyrimidin-2-yloxy)methyl)-5-((6-(trifluoromethyl)pyridin-2-yl)oxy)tetrahydro-2H-pyran-3,4-diol]
< 10 µM | O[C@@H]1[C@H](O)[C@@H](Oc2cccc(C(F)(F)F)n2)CO[C@@H]1CN1CCC1 [A245]
< 10 µM | O[C@@H]1[C@H](O)[C@@H](Oc2cccc(C(F)(F)F)n2)CO[C@@H]1COc1ccc(Br)cc1 [A238]
< 10 µM | CC(C)(C)OC(=O)N1CC2CN(C[C@H]3OC[C@H](Oc4cccc(C(F)(F)F)n4)[C@@H](O)[C@H]3O)CC2C1 (stereo partly drawn) [A262]

same assay, conditions: SPR, Biacore 8K, 25° C.; Table 1D, numeric bound; read-out: ASGPR KD

Kd | SMILES
> 30 µM | O[C@@H]1[C@@H](Nc2ncnn3cccc23)CNC[C@@H]1O [A400]

same assay, conditions: SPR, Biacore 8K, 25° C.; Table 1D; read-out: ASGPR KD

SMILES | Kd
O[C@@H]1[C@@H](Nc2cccc(C(F)(F)F)n2)CN(C2CCNCC2)C[C@@H]1O [A396] | < 10 µM
O[C@@H]1[C@@H](Oc2cccc(C(F)(F)F)n2)CN(c2ccncn2)C[C@@H]1O [Compound A248] | < 10 µM

The next lines start with the values.

Kd | SMILES
< 10 µM | O=C(O)CCCCC(=O)N1C[C@H](Nc2cncc(C(F)(F)F)n2)[C@@H](O)[C@@H](O)C1 [A408]
< 10 µM | O=C(c1ccccc1)N1C[C@H](Nc2cncc(C(F)(F)F)n2)[C@@H](O)[C@@H](O)C1 [A422]
< 10 µM | O=C(O)c1ccc(-c2ccc(CN3C[C@H](Nc4cncc(C(F)(F)F)n4)[C@@H](O)[C@@H](O)C3)cc2)cc1 [A387]
< 10 µM | COC(=O)c1ccc(-c2ccc(C(=O)N3C[C@H](Nc4cncc(C(F)(F)F)n4)[C@@H](O)[C@@H](O)C3)cc2)cc1 [A391]
< 10 µM | O=C(OCc1ccccc1)N1C[C@H](Oc2cccc(C(F)(F)F)n2)[C@@H](O)[C@@H](O)C1 [A386]
< 10 µM | O=C(O)COCCOCC(=O)C1C[C@H](Nc2cncc(C(F)(F)F)n2)[C@@H](O)[C@@H](O)C1 (stereo partly drawn) [A381]
< 10 µM | O=C(c1ccc(C(F)(F)F)cn1)N1C[C@H](Nc2cncc(C(F)(F)F)n2)[C@@H](O)[C@@H](O)C1 [A378]
< 10 µM | O=C(c1ccc(-c2ccccc2)cc1)N1C[C@H](Nc2cncc(C(F)(F)F)n2)[C@@H](O)[C@@H](O)C1 [A376]
< 10 µM | O=C(c1ccccn1)N1C[C@H](Nc2cncc(C(F)(F)F)n2)[C@@H](O)[C@@H](O)C1 [A423]

same assay, conditions: SPR, Biacore 8K, 25° C.; Table 1E; read-out: ASGPR KD

Kd | SMILES
< 10 µM | C[C@H]1O[C@H](C(N)=O)[C@H](Oc2cccc(C(F)(F)F)n2)[C@@H](O)[C@H]1O [A431]
